This note sets out measurements from patent publication US10722489B2, “D-3-phosphoglycerate dehydrogenase allosteric inhibitor and use thereof” (Peking University, priority 2016, dated 2020).

For orientation: EC50 means the midpoint of the concentration-response curve. Low readings indicate a more potent agent, high ones a less potent agent. In general, IC50 refers to the concentration that gives 50% inhibition.

In data set [1] the test system is PHGDH-sensitive breast cancer cells MDA-MB-468. As to the kind of experiment: MTT cell viability assay, MDA-MB-468. Type of data set: cell-based. The settings on record: Homo sapiens, 72 h. The source says: (§1) The biological activities of the compounds at the cellular level were investigated. A series of cancer cells and normal mammary epithelial cells were selected, and the experimental method of MTT (3-(4,5)-dimethylthiahiazo (-z-y 1)-3,5-di-phenytetrazoliumromide) was used.
(§2) The specific method: firstly, PHGDH-sensitive breast cancer cells MDA-MB-468 (5,000 cells/well) and HCC70 (5,000 cells/well), PHGDH-insensitive breast cancer cells MCF-7 (3,000 cells/well), MDA-MB-231 (2,000 cells/well) and ZR-75-1 (4,000 cells/well), colon cancer cell DLD-1 (2,000 cells/well) and normal breast epithelial cells MCF-10A (3,000 cells/well) in the exponential growth were plated into 96-well culture plates and treated in triplicate with or without various concentrations of activated compounds from the enzymatic bioassays. They adhered to the wall over night. The compounds were added from stock solutions in DMSO and the final concentration of DMSO in the medium was 0.2%. After 72 h, 20 μL 5 mg/ml MTT was added to each well and incubated for at least 4 h. […] The number of viable cells was assessed by spectrophotometry at 570 nm, and calculated as the percentage of absorbance of treated cells relative to that of solvent controls. Results were expressed as a percentage of viable cells and the EC50 was calculated by using the Hill equation.
(In general: Formazan colour is commonly taken as a measure of viable cells.)

The target in data set [2] is recombinant PHGDH (Homo sapiens (Human), UniProt O43175). In words: In vitro enzymatic activity of PHGDH by fluorescence kinetic method. The settings on record: recombinant PHGDH 30 ng/μL, NADH fluorescence at 456 nm. The format is biochemical. As for the experimental part: The activity of recombinant PHGDH was measured by monitoring the reduced nicotinamideadenine dinucleotide (NADH) to nicotinamideadenine dinucleotide (NAD^+) change in fluorescence emission at 456 nm. PHGDH (final concentration of 30 ng/μL) was first pre-incubated with enzyme samples in the assay buffer (25 mM HEPES, pH 7.1, 400 mM KCl, 5 μM phosphopyridoxa (PLP), 0.5 mM α-ketoglutarate, 150 μM NADH, PSAT1) for 10 min in 96-well plate, then 10 μL of DMSO (control) or a small molecule of DMSO solution was added, shaken at 550 rpm for 5 minutes at 25° C. and balanced for 5 minutes. […] The reaction was started by adding L-phospho-O-serine (Pser) solution. The UV-visible microplate reader was used to monitor the change of NADH consumption at 456 nm with time. Protein activity was assessed by using an initial rate of reaction within 30 s, at which time NADH consumption was linear over time. The enzymatic inhibition ability of sixty-three compounds was first measured at 50 μM, compounds with percentage inhibition of PHGDH larger than 50% were selected for further studies, and IC50 values were obtained (Table 3).
recombinant PHGDH, sequence (O43175 whole entry): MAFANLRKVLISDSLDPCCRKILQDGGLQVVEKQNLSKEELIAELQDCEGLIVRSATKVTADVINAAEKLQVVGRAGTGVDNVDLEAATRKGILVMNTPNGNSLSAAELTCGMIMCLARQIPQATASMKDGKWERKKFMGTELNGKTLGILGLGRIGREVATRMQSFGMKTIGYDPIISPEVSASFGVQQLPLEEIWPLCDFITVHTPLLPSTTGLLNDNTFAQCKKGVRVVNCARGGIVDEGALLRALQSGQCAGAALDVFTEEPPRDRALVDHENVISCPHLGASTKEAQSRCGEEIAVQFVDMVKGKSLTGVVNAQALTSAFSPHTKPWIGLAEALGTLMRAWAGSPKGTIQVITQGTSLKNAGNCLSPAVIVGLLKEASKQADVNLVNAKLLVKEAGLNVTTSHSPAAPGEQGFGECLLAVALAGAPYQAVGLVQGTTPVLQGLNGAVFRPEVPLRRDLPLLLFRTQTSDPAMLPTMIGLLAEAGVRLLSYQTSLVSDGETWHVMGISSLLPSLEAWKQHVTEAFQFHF

For data set [3], the system named is PHGDH-insensitive breast cancer cells MDA-MB-231. In words: MTT cell viability assay, MDA-MB-231. The format is cell-based. To be noted: Homo sapiens, 72 h.
Excerpt: as §1, §2

Data set [4] concerns PHGDH-insensitive breast cancer cells ZR-75-1. In words: MTT cell viability assay, ZR-75-1. To be noted: Homo sapiens, 72 h. Type of data set: cell-based.
Excerpt: as §1, §2

The subject of data set [5] is MDA-MB-468 Cells. In words: Cell cycle analysis by PI staining and flow cytometry. The format is cell-based. The settings on record: MDA-MB-468, 24 h, various concentrations. As to the method:
MDA-MB-468 Cells (300,000 cells/well) in exponential growth were plated into 6-well culture plates and then treated in triplicate with or without various concentrations of PKUMDL-WL-2101. After 24 h, cells were harvested by trypsinization and centrifuged, and then fixed in 70% ice-cold ethanol, washed twice with 1×PBS, and kept at 4° C. overnight. The fixed cells were afterwards washed in 1×PBS and resuspended in 1×PBS containing 0.5% triton-x-100, 50 μg/ml Prodiumiodide (PI) and 50 μg/ml DNase-free RNase. The cell suspension was incubated in the dark for 30 min at 37° C. and analyzed by using a BD FACSCanto™ cytometer.
For orientation: A flow cytometer gives signals particle by particle.

Data set [6] concerns MDA-MB-468 xenografts. As to the kind of experiment: Mouse xenograft model, compounds injected separately. The format is in vivo. To be noted: 20 mg/kg/day IP; for inhibitory effects on MDA-MB-468 xenografts (tumor volume): after 30 days of drug delivery, vs vehicle; for tolerability (body weight): over the course of the experiments. As to the method: All animal experiments were performed in compliance with guidelines of the Animal Welfare Act and the guide for the care and use of laboratory animals following protocols approved by the Institutional Animals Care and Use Committee (IACUC). […] The tumor volumes were measured every two days and calculated by using the following formula width^2 (mm)×length (mm)×0.5.

Data set [7] has as its system normal breast epithelial cells MCF-10A. As to the kind of experiment: MTT cell viability assay, MCF-10A. Type of data set: cell-based. The settings on record: Homo sapiens, 72 h.
Excerpt: as §1, §2

For data set [8], the system named is colon cancer cell DLD-1. As to the kind of experiment: MTT cell viability assay, DLD-1. The settings on record: Homo sapiens, 72 h, colon cancer cells. The format is cell-based.
Excerpt: as §1, §2

For data set [9], the system named is PHGDH-sensitive breast cancer cells HCC70. As to the kind of experiment: MTT cell viability assay, HCC70. To be noted: Homo sapiens, 72 h. Type of data set: cell-based.
Excerpt: as §1, §2

Data set [10] deals with PHGDH-insensitive breast cancer cells MCF-7. As to the kind of experiment: MTT cell viability assay, MCF-7. To be noted: Homo sapiens, MCF7, 72 h. The format is cell-based.
Excerpt: as §1, §2

Turning to `O=C(N/N=C/c1cc([N+](=O)[O-])ccc1O)c1ccc(O)cc1O` [PKUMDL-WL-2101, (E)-2,4-dihydroxy-N′-(2-hydroxy-5-nitrobenzylidene)benzohydrazide], the concentration for a half-maximal effect (EC50) in [1] is 7.7 µM; in data set [3], 27.7 µM; in data set [4] it was 83.4 µM; in data set [7] it was 45.8 µM; in data set [8], 18.3 µM; in data set [9], 10.8 µM. Moreover, the half-maximal effective concentration (EC50) in [10] stood at 139 µM. The IC50 in data set [2] was 34.8 ± 3.6 µM. Besides, in [5], the “effect on cell cycle” value is recorded as “arrested the cell cycle at the G0/G1-phase in a dose-dependent manner”. Moreover, the “inhibitory effects on MDA-MB-468 xenografts (tumor volume)” value in [6] is “substantial inhibitory effects”. Further, the “tolerability (body weight)” value in data set [6] was “maintain normal body weight”.
For `O=C(N/N=C/c1cc([N+](=O)[O-])ccc1O)c1ccc(C(F)(F)F)cc1` [PKUMDL-WL-2128], the IC50 in data set [2] was 36.1 ± 4.2 µM.
In the case of `CCNC(=S)N/N=C\c1ccc(-c2ccc(C(=O)O)c(Cl)c2)o1` [PKUMDL-WL-2201, (Z)-2-chloro-4-(5-((2-(ethylcarbamothioyl) hydrazono)methyl)furan-2-yl) benzoic acid], the concentration giving a half-maximal response (EC50) is 6.9 µM in [1]; above 200 µM in [3]; 125 µM in data set [4]; 64.7 µM in data set [7]; 167 µM in data set [8]; 10 µM in data set [9]. The half-maximal effective concentration (EC50) in data set [10] is above 200 µM. The IC50 in data set [2] turned out to be 35.7 ± 8.6 µM. Moreover, in [5], the “effect on cell cycle” value was “arrested the cell cycle at the G0/G1-phase in a dose-dependent manner”. Further, the “inhibitory effects on MDA-MB-468 xenografts (tumor volume)” value in data set [6] is recorded as “substantial inhibitory effects”. In data set [6], the “tolerability (body weight)” value was “maintain normal body weight”.
For `COC(=O)c1ccc(-c2ccc(/C=N/NC(=S)Nc3ccc([N+](=O)[O-])cc3)o2)cc1` [PKUMDL-WL-2212, (E)-Methyl 4-(5-((2-((4-nitrophenyl)carbamothioyl) hydrazono)methyl)furan-2-yl) benzoate], the IC50 in [2] amounted to 29.8 ± 9.4 µM.
With `COC(=O)c1ccc(-c2ccc(/C=N/NC(=S)NN)o2)cc1` [PKUMDL-WL-2220, (E)-Methyl 4-(5-((2-(hydrazinecarbonothioyl) hydrazono)methyl)furan-2-yl) benzoate], in data set [2], the IC50 was determined as 8.9 ± 1.8 µM.
The same measure, in the same setting: under `NNC(=S)N/N=C/c1ccc(-c2ccc(C(=O)O)cc2)o1` [PKUMDL-WL-2222, (E)-4-(5-((2-(hydrazinecarbonothioyl) hydrazono)methyl)furan-2-yl) benzoic acid] stands 16.7 ± 1.6 µM; under `NNC(=S)N/N=C/c1ccc(-c2ccc(S(N)(=O)=O)cc2)o1` [PKUMDL-WL-2225, (E)-4-(5-((2-(hydrazinecarbonothioyl) hydrazono)methyl)furan-2-yl) benzenesulfonamide], 38.9 ± 1.2 µM.
The same measure, in the same setting: under `CCNC(=S)N/N=C/c1ccc(-c2ccc(C(=O)O)cc2)o1` [PKUMDL-WL-2226, (E)-4-(5-((2-(ethylcarbamothioyl) hydrazono)methyl)furan-2-yl) benzoic acid] stands 35.5 ± 1.1 µM; under `CCNC(=S)N/N=C/c1ccc(-c2ccc([N+](=O)[O-])cc2)o1` [PKUMDL-WL-2228, (E)-N-ethyl-2-((5-(4-nitrophenyl)furan-2-yl)methylene) hydrazinecarbothioamide], 37 ± 2.8 µM; under `CCNC(=S)N/N=C/c1ccc(-c2ccc(O)cc2)o1` [PKUMDL-WL-2229, (E)-N-ethyl-2-((5-(4-hydroxyphenyl)furan-2-yl)methylene) hydrazinecarbothioamide], 30.3 ± 4.5 µM.
